pIC50: −log10 of the molar value. In brackets after ≈: the same amount, converted by molar mass. Activity calls are given as the source filed them. No cut-off for these calls is given here.
Tests used:
Candida albicans = assay: Antifungal activity against Candida albicans MTCC 227 incubated for overnight by broth micro dilution method; type: functional
Aspergillus clavatus [1] = assay: Antifungal activity against Aspergillus clavatus MTCC 1323 incubated for overnight by broth micro dilution method; type: functional
[2] = Cytotoxicity against Schizosaccharomyces pombe Var. Paul Linder 3360 assessed as cell viability at 6 ug/ml after 16 to 18 hrs by trypan blue staining-based compound microscopic analysis (reference value: 93.67 +/- 1.53%); settings: Schizosaccharomyces pombe Var. Paul Linder 3360 cells, read-out: Activity
[3] = Cytotoxicity against Schizosaccharomyces pombe Var. Paul Linder 3360 assessed as cell viability at 10 ug/ml after 16 to 18 hrs by trypan blue staining-based compound microscopic analysis (reference value: 93.67 +/- 1.53%); settings: Schizosaccharomyces pombe Var. Paul Linder 3360 cells, read-out: Activity
[4] = Cytotoxicity against Schizosaccharomyces pombe Var. Paul Linder 3360 assessed as cell viability at 8 ug/ml after 16 to 18 hrs by trypan blue staining-based compound microscopic analysis (reference value: 93.67 +/- 1.53%); settings: Schizosaccharomyces pombe Var. Paul Linder 3360 cells, read-out: Activity
[5] = Cytotoxicity against Schizosaccharomyces pombe Var. Paul Linder 3360 assessed as cell viability at 2 ug/ml after 16 to 18 hrs by trypan blue staining-based compound microscopic analysis (reference value: 93.67 +/- 1.53%); settings: Schizosaccharomyces pombe Var. Paul Linder 3360 cells, read-out: Activity
Streptococcus pyogenes = assay: Antimicrobial activity against Streptococcus pyogenes MTCC 442 incubated for overnight by broth micro dilution method; type: functional
Plasmodium falciparum = assay: Antimalarial activity against Plasmodium falciparum ring stage forms after 48 hrs; type: functional
[6] = test system: Schizosaccharomyces pombe; assay: Genotoxicity in Schizosaccharomyces pombe Var. Paul Linder 3360 assessed as DNA damage at 2 to 10 ug/ml after 17 to 18 hrs by agarose gel electrophoresis analysis
Escherichia coli = assay: Antimicrobial activity against Escherichia coli MTCC 443 incubated for overnight by broth micro dilution method; type: functional
[7] = Cytotoxicity against Schizosaccharomyces pombe Var. Paul Linder 3360 assessed as cell viability at 4 ug/ml after 16 to 18 hrs by trypan blue staining-based compound microscopic analysis (reference value: 93.67 +/- 1.53%); settings: Schizosaccharomyces pombe Var. Paul Linder 3360 cells, read-out: Activity
Pseudomonas aeruginosa = assay: Antimicrobial activity against Pseudomonas aeruginosa MTCC 1688 incubated for overnight by broth micro dilution method; type: functional
Staphylococcus aureus = assay: Antimicrobial activity against Staphylococcus aureus MTCC 96 incubated for overnight by broth micro dilution method; type: functional
Aspergillus clavatus [8] = settings: MTCC 1323
Dihydrofolate reductase = biological target: T1, Dihydrofolate reductase (Bos taurus, UniProt P00376); assay: Inhibition of bovine liver DHFR pre-incubated 2 mins before dihydrofolic acid substrate addition and measured over 10 mins in presence of NADPH
T1 sequence (P00376 whole entry): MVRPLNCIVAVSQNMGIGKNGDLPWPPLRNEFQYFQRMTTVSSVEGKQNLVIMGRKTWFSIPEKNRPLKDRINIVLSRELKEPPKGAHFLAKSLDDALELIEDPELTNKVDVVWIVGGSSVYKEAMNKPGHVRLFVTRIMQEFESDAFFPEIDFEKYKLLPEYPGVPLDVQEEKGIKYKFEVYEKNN

Row | Compound | MIC99 (Candida albicans) | MIC99 (Aspergillus clavatus [1]) | viability at 6 ug/ml [2] | viability at 10 ug/ml [3] | viability at 8 ug/ml [4] | viability at 2 ug/ml [5] | MIC99 (Streptococcus pyogenes) | pIC50 (Plasmodium falciparum) | Activity [6] | MIC99 (Escherichia coli) | viability at 4 ug/ml [7] | MIC99 (Pseudomonas aeruginosa) | MIC99 (Staphylococcus aureus) | MIC99 (Aspergillus clavatus [8]) | pIC50 (Dihydrofolate reductase)
1 | COC1=CC(=O)C[C@@H](C)[C@]12Oc1c(Cl)c(OC)cc(OC)c1C2=O [GRISEOFULVIN] | 1420 µM (≈ 501 µg/mL) | 284 µM (≈ 100 µg/mL) |  |  |  |  |  |  |  |  |  |  |  |  | 
2 | Nc1ccc(-c2nnc(S)n2N)cc1 | 4830 µM (≈ 1000 µg/mL) | 2420 µM (≈ 501 µg/mL) | 82% | 67% | 75.7% | 91.3% | 1210 µM (≈ 250 µg/mL) | 6.02 | Toxic | 1210 µM (≈ 250 µg/mL) | 85.7% | 966 µM (≈ 200 µg/mL) | 1210 µM (≈ 250 µg/mL) |  | 
3 | CCn1cc(C(=O)O)c(=O)c2cc(F)c(N3CCNCC3)cc21 [NORFLOXACIN] |  |  |  |  |  |  | 31 µM (≈ 9.9 µg/mL) |  |  | 31 µM (≈ 9.9 µg/mL) |  | 31 µM (≈ 9.9 µg/mL) | 31 µM (≈ 9.9 µg/mL) |  | 
4 | Oc1ccc(/C=N/c2ccc(-c3nnc(S)n3/N=C/c3ccc(O)cc3)cc2)cc1 | inactive |  | 78.7% | 72.3% | 77% | 84.7% | 482 µM (≈ 200 µg/mL) | 6.55 | Toxic | 241 µM (≈ 100 µg/mL) | 79.7% | 602 µM (≈ 250 µg/mL) | 602 µM (≈ 250 µg/mL) | inactive | 7.31
5 | O=C(N[C@H](CO)[C@H](O)c1ccc([N+](=O)[O-])cc1)C(Cl)Cl [CHLORAMPHENICOL] |  |  |  |  |  |  | 155 µM (≈ 50.1 µg/mL) |  |  | 155 µM (≈ 50.1 µg/mL) |  | 155 µM (≈ 50.1 µg/mL) | 155 µM (≈ 50.1 µg/mL) |  | 
6 | O=C(O)c1cn(C2CC2)c2cc(N3CCNCC3)c(F)cc2c1=O [CIPROFLOXACIN] |  |  |  |  |  |  | 151 µM (≈ 50 µg/mL) |  |  | 75 µM (≈ 24.9 µg/mL) |  | 75 µM (≈ 24.9 µg/mL) | 151 µM (≈ 50 µg/mL) |  | 
7 | Sc1nnc(-c2ccc(/N=C/c3cccs3)cc2)n1/N=C/c1cccs1 | 2530 µM (≈ 1000 µg/mL) |  | 75.3% | 63.3% | 70.7% | 87.7% | 506 µM (≈ 200 µg/mL) | 6.09 | Toxic | 316 µM (≈ 125 µg/mL) | 82% | 633 µM (≈ 250 µg/mL) | 633 µM (≈ 250 µg/mL) | inactive | 
8 | CCN(CC)CCCC(C)Nc1ccnc2cc(Cl)ccc12 (stereo not given) [CHLOROQUINE] |  |  |  |  |  |  |  |  |  |  |  |  |  |  | 7.52
9 | Oc1ccc(/C=N/c2ccc(-c3nnc(S)o3)cc2)cc1 | inactive |  | 72% | 45.3% | 67% | 82.3% | 673 µM (≈ 200 µg/mL) | 6.09 | Toxic | 421 µM (≈ 125 µg/mL) | 78.3% | 842 µM (≈ 250 µg/mL) | 673 µM (≈ 200 µg/mL) | inactive | 
10 | CC1(C)S[C@@H]2[C@H](NC(=O)[C@H](N)c3ccccc3)C(=O)N2[C@H]1C(=O)O [AMPICILLIN] |  |  |  |  |  |  | 286 µM (≈ 99.9 µg/mL) |  |  | 286 µM (≈ 99.9 µg/mL) |  | 286 µM (≈ 99.9 µg/mL) | 716 µM (≈ 250 µg/mL) |  | 
11 | O=[N+]([O-])c1cccc(/C=N/c2ccc(-c3nnc(S)o3)cc2)c1 | 1530 µM (≈ 501 µg/mL) | 1530 µM (≈ 501 µg/mL) | 65.7% | 46.3% | 56.7% | 78.3% | 307 µM (≈ 100 µg/mL) | 6.09 | Toxic | 613 µM (≈ 200 µg/mL) | 74.3% | 613 µM (≈ 200 µg/mL) | 383 µM (≈ 125 µg/mL) |  | 
12 | Sc1nnc(-c2ccc(/N=C/c3cccs3)cc2)o1 | inactive |  | 66.3% | 52.7% | 61% | 74.3% | 348 µM (≈ 100 µg/mL) | 6.10 | Toxic | 436 µM (≈ 125 µg/mL) | 70.7% | 871 µM (≈ 250 µg/mL) | 697 µM (≈ 200 µg/mL) | inactive | 
13 | Nc1ccc(-c2nnc(S)o2)cc1 | 2590 µM (≈ 500 µg/mL) | 1300 µM (≈ 250 µg/mL) | 76% | 68.3% | 71% | 87.3% | 518 µM (≈ 100 µg/mL) | 6.09 | Toxic | 518 µM (≈ 100 µg/mL) | 83% | 1300 µM (≈ 250 µg/mL) | 324 µM (≈ 62.6 µg/mL) |  | 
14 | COc1ccc(/C=N/c2ccc(-c3nnc(S)n3/N=C/c3ccc(OC)cc3)cc2)cc1 | 1130 µM (≈ 500 µg/mL) | 1130 µM (≈ 500 µg/mL) | 59% | 38.7% | 52.7% | 79% | 226 µM (≈ 100 µg/mL) | 6.08 | Toxic | 282 µM (≈ 125 µg/mL) | 64.3% | 564 µM (≈ 250 µg/mL) | 564 µM (≈ 250 µg/mL) |  | 
15 | NYSTATIN | 108 µM |  |  |  |  |  |  |  |  |  |  |  |  | 108 µM | 
16 | COc1ccc(/C=N/c2ccc(-c3nnc(S)o3)cc2)cc1 | 3220 µM (≈ 1000 µg/mL) | 1610 µM (≈ 500 µg/mL) | 68% | 49% | 63.7% | 80.3% | 804 µM (≈ 250 µg/mL) | 6.10 | Toxic | 643 µM (≈ 200 µg/mL) | 72.3% | 402 µM (≈ 125 µg/mL) | 804 µM (≈ 250 µg/mL) |  | 
17 | CCc1nc(N)nc(N)c1-c1ccc(Cl)cc1 [PYRIMETHAMINE] |  |  |  |  |  |  |  | 6.00 |  |  |  |  |  |  | 

From ChEMBL document CHEMBL4052693, “1,2,4-Triazole and 1,3,4-oxadiazole analogues: Synthesis, MO studies, in silico molecular docking studies, antimalarial as DHFR inhibitor and antimicrobial activities” (Bioorg Med Chem, 2017)
